This series in a line: solvent given as SMILES.

`Cc1cccc(-c2nc3sc4ccccc4c3s2)c1`: the absorption maximum (in CS(C)=O) is reported as 348 nm.
For the compound `COc1ccccc1-c1cc2c(o1)=CC1=Cc3cc4oc(-c5ccccc5OC)cc4n3[B-](F)(F)[N+]=21`, the absorption maximum (in ClC(Cl)Cl) was determined as 671 nm.
Same read-out and setting: the same measure for `CCCCCc1c(Oc2cc(O)cc(CCC(=O)CC)c2C(=O)OC)c(OC)cc(O)c1C(=O)O`: 312 nm.
As for `CCN(CC)c1ccc2cc(-c3ccc(S(C)(=O)=O)cc3)oc(=O)c2c1`, the absorption maximum (in CC(C)=O) is reported as 375 nm; the absorption maximum (in CCCCCC) turned out to be 373 nm; the absorption maximum (in CCCCO) was 378 nm; the absorption maximum (in CCCO) is recorded as 378 nm; the absorption maximum (in CCO) worked out at 376 nm; the absorption maximum (in CCOC(C)=O) worked out at 374 nm. The same compound returned an absorption maximum (in CN(C)C=O) of 379 nm, an absorption maximum (in CO) of 376 nm and an absorption maximum (in ClC(Cl)Cl) of 383 nm.
`CC[n+]1c(C=C2C(=O)C(C=C3Sc4cc(Cl)ccc4N3C)=C2[O-])[se]c2ccccc21` registered an absorption maximum (in CO) of 658 nm, an absorption maximum (in ClC(Cl)Cl) of 677 nm and an absorption maximum (in ClCCl) of 678 nm.
For the setting “in O”, `[NH3+]C(Cc1ccccc1)C(=O)[O-]` (stereo unspecified) displayed an absorption maximum of 258 nm.
For the compound `COc1ccc(-c2cc3c(ccc4sc(/C=C/c5cccs5)cc43)s2)cc1`, where the note is “in ClCCl”, the absorption maximum stood at 376 nm.
In the case of `CCCCCCCCCCN1C(=O)c2cc(NCCCOCCO)c3c4c(cc(NCCCOCCO)c(c24)C1=O)C(=O)N(CCCCCCCCCC)C3=O`, the absorption maximum runs as follows: (in CO) 604 nm; (in ClC(Cl)Cl) 609 nm.
For `Cc1ccc([N+]2=c3c4n(c5ccccc35)[B-](F)(F)[N+](c3ccc(C)cc3)=c3c=4n(c4ccccc34)[B-]2(F)F)cc1`, the absorption maximum (in ClCCl) is 743 nm.
For `CC(C)Nc1cc2oc3cc(NC(C)C)c(F)cc3c(=O)c2cc1F`, the absorption maximum (in CCO) is 370 nm.
Consider `CCn1c2ccccc2c2cc(C#Cc3cc(C#Cc4ccc5c(c4)c4ccccc4n5CC)nc(OC)n3)ccc21`, for which the absorption maximum runs as follows: (in C1CCOC1) 388 nm; (in CCOC(C)=O) 384 nm; (in CN(C)C=O) 392 nm; (in Cc1ccccc1) 389 nm; (in ClCCl) 390 nm.
For `O=C1CCCC2=C1CC1=C(CCCC1=O)N2NC(=O)c1ccc(O)cc1`, the absorption maximum was 368 nm (in CC#N); 368 nm (in CC(C)=O); 376 nm (in CCCCCO); 376 nm (in CO); 368 nm (in ClC(Cl)Cl); 372 nm (in ClCCl).
As for `CCCN1/C(=C/C=C(/C=C/C2=[N+](CCC)c3ccccc3C2(C)C)c2ccc3ccccc3n2)C(C)(C)c2ccccc21`, the absorption maximum runs as follows: (in CO) 629 nm; (in CS(C)=O) 641 nm; (in O) 633 nm.
Take `COC(=O)c1ccc(/C=C2\C=C(c3ccc(C#N)cc3)OC2=O)cc1`: the absorption maximum (in C1COCCO1) came out at 404 nm.
As to `COC(=O)C(Cc1ccc2oc(-c3ccc4c(c3)c3ccccc3n4-c3ccccc3)nc2c1)NC(=O)OC(C)(C)C` (stereo unspecified), the absorption maximum is 326 nm (in C1CCCCC1); 327.29 nm (in C1CCOC1); 327.3 nm (in C1COCCO1); 326.9 nm (in CC1CCCO1); 326 nm (in CC1COC(=O)O1); 325.9 nm (in CC#N). For the same compound, the absorption maximum runs as follows: (in CC(C)=O) 325.9 nm; (in CC(C)CC(C)(C)C) 325.1 nm; (in CC(C)CO) 335.8 nm; (in CC(C)O) 327 nm; (in CC(C)OC(C)C) 327.4 nm; (in CC(O)CO) 338 nm. Also, the absorption maximum is, setting by setting: (in CCC(C)CC) 324.4 nm; (in CCCCC) 324.5 nm; (in CCCCCC) 325.3 nm; (in CCCCCCCCC) 326 nm; (in CCCCCCCCCC) 326.2 nm; (in CCCCCCCO) 328.3 nm. Besides, the absorption maximum is 328.2 nm (in CCCCCCO); 327.3 nm (in CCCCCO); 327.4 nm (in CCCCO); 334.69 nm (in CCO); 325.6 nm (in CCOC(C)=O); 325.3 nm (in CCOCC). Besides, the absorption maximum was determined as 327.9 nm (in CN(C)C=O); 334.2 nm (in CO); 326.8 nm (in COCCOC); 332.6 nm (in CS(C)=O); 328.9 nm (in Cc1ccccc1); 329.1 nm (in Cc1ccccc1C). This compound also displayed an absorption maximum (in ClC(Cl)Cl) of 329.7 nm; an absorption maximum (in ClCCl) of 328.8 nm; an absorption maximum (in NC=O) of 327.7 nm; an absorption maximum (in OC1CCCCC1) of 328.6 nm; an absorption maximum (in OCCO) of 338.9 nm; an absorption maximum (in c1ccccc1) of 328.8 nm.
Regarding `CN1CCc2cc(C3=Cc4cccc[n+]4[B-](F)(F)O3)ccc21`, the absorption maximum (in ClC(Cl)Cl) is reported as 430 nm.
`C[Si]1(C)c2cc(-c3ccc(-c4cccs4)s3)ccc2C=Cc2ccc(-c3ccc(-c4cccs4)s3)cc21` had an absorption maximum (in ClCCl) of 458 nm.
Take `Clc1ccc(/C=C/c2cnc3ccccc3n2)cc1`: the absorption maximum (in ClCCl) stood at 355 nm.
With `O=C1C=C(Nc2cccc(F)c2F)C(=O)c2ccccc21`, the absorption maximum by setting is: (in CCCCCC) 428 nm; (in CO) 439 nm.
On to `CN(C)c1ccc(/C=C/C(=O)c2ccc(Cl)cc2)cc1`, for which the absorption maximum reads like this: (in C1CCOC1) 413 nm; (in CC#N) 419 nm; (in CC(=O)O) 430 nm; (in CC(C)=O) 418 nm; (in CCO) 429 nm; (in CN(C)C=O) 427 nm. Besides, the absorption maximum was determined as 428 nm (in CO), 416 nm (in Cc1ccccc1), 426 nm (in ClC(Cl)Cl) and 420 nm (in c1ccccc1).
Consider `c1ccc2c(c1)c1ccccc1c1[nH]c(-c3ccc(-c4nc5c6ccccc6c6ccccc6c5[nH]4)cc3)nc21`, for which the absorption maximum is, setting by setting: (in C1CCOC1) 411 nm; (in CC#N) 412 nm; (in CCO) 410 nm; (in CS(C)=O) 410 nm; (in ClCCl) 413 nm.
In turn, `O=C(O)CCCCCNC(=O)c1cccc2c(=O)c3ccccc3[nH]c12` displayed an absorption maximum (in O) of 409 nm.
Compound `CC1=CC(/C=C/c2ccc([N+](C)(C)C)cc2)=[N+]2C1=C(c1ccc(C#CCO[C@@H]3O[C@H](CO)[C@@H](O)C(O)[C@H]3O)cc1)c1c(C)cc(/C=C/c3ccc([N+](C)(C)C)cc3)n1[B-]2(F)F` (stereo partly specified) gave an absorption maximum (in CC#N) of 618 nm.
For the compound `CCCCC(CC)COc1ccc2nc(-c3ccc(-c4cccs4)s3)sc2c1` (stereo unspecified), the absorption maximum (in ClCCl) stood at 382 nm.
For `COc1ccc2cc(C3=[N+]4C(=Nc5c(-c6ccccc6)cc(-c6ccc7cc(OC)ccc7c6)n5[B-]4(F)F)C(c4ccccc4)=C3Br)ccc2c1`, the absorption maximum came out at 695 nm (in ClC(Cl)Cl) and 695 nm (in ClCCl).
For the compound `CCCCOC(=O)c1ccccc1-c1c2ccc(=[N+](CC)CC)cc-2oc2cc(N(CC)CC)ccc12`, the absorption maximum by setting is: (in CC#N) 555 nm; (in CCO) 543 nm; (in CN(C)C=O) 562 nm; (in O) 558 nm.

The record behind these values is the Deep4Chem optical property database.
